Laboratory results: US12214092B2, “Systems and methods for treating biological fluids” (Cerus Corporation, priority 2017, dated 2025)

Assays:
P. acnes = assay: Amotosalen and UV light (265-385 nm LEDs) treatment of P. acnes in plasma, colony forming unit assay; assay type: cell-based; conditions: 15 μM amotosalen, ~6.4 J/cm^2, plasma
Text: This system comprised single arrays facing (e.g., opposing) a platform positioned for the illumination of biological fluids placed on the platform (see e.g., FIG. 5). System controls provided for adjustment of the LEDs during treatment of the biological fluid samples, controlling both the timing and intensity of illumination by the LEDs to achieve a desired light UV light dose. Evaluation of photochemical conversion, photoproduct formation, pathogen inactivation, and plasma and/or platelet quality parameters are performed for each light source wavelength as described previously. In one study using the device, photochemical inactivation of various bacteria were tested for each of the above-referenced LEDs together with amotosalen. The bacteria included E. coli (Gram negative), S. epidermidis (Gram positive), and P. acnes (anaerobe). As there are known germicidal effects of ultraviolet light with wavelengths in the UVC and UVB range, the study was controlled to determine for each LED wavelength the total inactivation levels, as well as inactivation levels specifically resulting from the UV light (without added amotosalen) or the photochemical treatment process itself.

feline calicivirus (FCV) = conditions: previously reported (Irsch et al. 2011), 150 μM S-59 with broad spectrum UVA; cited from earlier work
[1] = Residual post-illumination amotosalen by LED wavelength in bacteria-spiked plasma, HPLC; conditions: for Pre-UV S-59: pre-illumination

Cc1oc2c(C)c3oc(=O)cc(C)c3cc2c1COCCN [S-59, 3-(2-aminoethoxymethyl)-2,5,9-trimethylfuro[3,2-g]chromen-7-one]
Log reduction from S-59 (P. acnes; 340 nm): 6.78 log
Log reduction total (P. acnes; 340 nm): 6.99 log
Log reduction from S-59 (P. acnes; 365 nm): 6.67 log
Log reduction total (P. acnes; 365 nm): 6.99 log
Log reduction from S-59 (P. acnes; 385 nm): 1.64 log
Log reduction total (P. acnes; 385 nm): 1.97 log
reduction in titer of caliciviruses (FCV) (feline calicivirus (FCV)): 1.7-2.4 log 10
Pre-UV S-59 ([1]; E. coli plasma, 15 μM arm, 265 nm arm): 16.0 µM
Post-UV S-59 ([1]; E. coli plasma, 15 μM arm, 265 nm, ~3 J/cm^2): 12.7 µM
Pre-UV S-59 ([1]; E. coli plasma, 15 μM arm, 280 nm arm): 16.2 µM
Post-UV S-59 ([1]; E. coli plasma, 15 μM arm, 280 nm, ~3 J/cm^2): 12.6 µM
Pre-UV S-59 ([1]; E. coli plasma, 15 μM arm, 310 nm arm): 15.4 µM
Post-UV S-59 ([1]; E. coli plasma, 15 μM arm, 310 nm, ~3 J/cm^2): 5.5 µM
Pre-UV S-59 ([1]; E. coli plasma, 15 μM arm, 325 nm arm): 15.8 µM
Post-UV S-59 ([1]; E. coli plasma, 15 μM arm, 325 nm, ~3 J/cm^2): 4.0 µM
Pre-UV S-59 ([1]; E. coli plasma, 15 μM arm, 340 nm arm): 16.0 µM
Post-UV S-59 ([1]; E. coli plasma, 15 μM arm, 340 nm, ~3 J/cm^2): 3.7 µM
Pre-UV S-59 ([1]; E. coli plasma, 15 μM arm, 365 nm arm): 16.2 µM
Post-UV S-59 ([1]; E. coli plasma, 15 μM arm, 365 nm, ~3 J/cm^2): 8.1 µM
Pre-UV S-59 ([1]; E. coli plasma, 15 μM arm, 385 nm arm): 15.3 µM
Post-UV S-59 ([1]; E. coli plasma, 15 μM arm, 385 nm, ~3 J/cm^2): 14.3 µM
Pre-UV S-59 ([1]; E. coli plasma, 150 μM arm, 265 nm arm): 148.9 µM
Post-UV S-59 ([1]; E. coli plasma, 150 μM arm, 265 nm, ~3 J/cm^2): 115.0 µM
Pre-UV S-59 ([1]; E. coli plasma, 150 μM arm, 280 nm arm): 152.7 µM
Post-UV S-59 ([1]; E. coli plasma, 150 μM arm, 280 nm, ~3 J/cm^2): 148.1 µM
Pre-UV S-59 ([1]; E. coli plasma, 150 μM arm, 310 nm arm): 151.1 µM
Post-UV S-59 ([1]; E. coli plasma, 150 μM arm, 310 nm, ~3 J/cm^2): 56.8 µM
Pre-UV S-59 ([1]; E. coli plasma, 150 μM arm, 325 nm arm): 141.6 µM
Post-UV S-59 ([1]; E. coli plasma, 150 μM arm, 325 nm, ~3 J/cm^2): 52.1 µM
Pre-UV S-59 ([1]; E. coli plasma, 150 μM arm, 340 nm arm): 142.2 µM
Post-UV S-59 ([1]; E. coli plasma, 150 μM arm, 340 nm, ~3 J/cm^2): 48.1 µM
Pre-UV S-59 ([1]; E. coli plasma, 150 μM arm, 365 nm arm): 153.2 µM
Post-UV S-59 ([1]; E. coli plasma, 150 μM arm, 365 nm, ~3 J/cm^2): 79.8 µM
Pre-UV S-59 ([1]; E. coli plasma, 150 μM arm, 385 nm arm): 148.4 µM
Post-UV S-59 ([1]; E. coli plasma, 150 μM arm, 385 nm, ~3 J/cm^2): 135.1 µM
Pre-UV S-59 ([1]; P. acnes plasma, 15 μM arm, 265 nm arm): 15.7 µM
Post-UV S-59 ([1]; P. acnes plasma, 15 μM arm, 265 nm, ~6.4 J/cm^2): 10.8 µM
Pre-UV S-59 ([1]; P. acnes plasma, 15 μM arm, 280 nm arm): 15.7 µM
Post-UV S-59 ([1]; P. acnes plasma, 15 μM arm, 280 nm, ~6.4 J/cm^2): 16.0 µM
Pre-UV S-59 ([1]; P. acnes plasma, 15 μM arm, 310 nm arm): 15.7 µM
Post-UV S-59 ([1]; P. acnes plasma, 15 μM arm, 310 nm, ~6.4 J/cm^2): 2.2 µM
Pre-UV S-59 ([1]; P. acnes plasma, 15 μM arm, 325 nm arm): 15.7 µM
Post-UV S-59 ([1]; P. acnes plasma, 15 μM arm, 325 nm, ~6.4 J/cm^2): 1.1 µM
Pre-UV S-59 ([1]; P. acnes plasma, 15 μM arm, 340 nm arm): 15.7 µM
Post-UV S-59 ([1]; P. acnes plasma, 15 μM arm, 340 nm, ~6.4 J/cm^2): 1.4 µM
Pre-UV S-59 ([1]; P. acnes plasma, 15 μM arm, 365 nm arm): 15.7 µM
Post-UV S-59 ([1]; P. acnes plasma, 15 μM arm, 365 nm, ~6.4 J/cm^2): 5.5 µM
Pre-UV S-59 ([1]; P. acnes plasma, 15 μM arm, 385 nm arm): 15.7 µM
Post-UV S-59 ([1]; P. acnes plasma, 15 μM arm, 385 nm, ~6.4 J/cm^2): 13.7 µM
Pre-UV S-59 ([1]; S. epidermidis plasma, 15 μM arm, 265 nm arm): 14.4 µM
Post-UV S-59 ([1]; S. epidermidis plasma, 15 μM arm, 265 nm, ~3 J/cm^2): 13.0 µM
Pre-UV S-59 ([1]; S. epidermidis plasma, 15 μM arm, 280 nm arm): 14.8 µM
Post-UV S-59 ([1]; S. epidermidis plasma, 15 μM arm, 280 nm, ~3 J/cm^2): 11.8 µM
Pre-UV S-59 ([1]; S. epidermidis plasma, 15 μM arm, 310 nm arm): 14.3 µM
Post-UV S-59 ([1]; S. epidermidis plasma, 15 μM arm, 310 nm, ~3 J/cm^2): 5.2 µM
Pre-UV S-59 ([1]; S. epidermidis plasma, 15 μM arm, 325 nm arm): 14.9 µM
Post-UV S-59 ([1]; S. epidermidis plasma, 15 μM arm, 325 nm, ~3 J/cm^2): 3.7 µM
Pre-UV S-59 ([1]; S. epidermidis plasma, 15 μM arm, 340 nm arm): 14.8 µM
Post-UV S-59 ([1]; S. epidermidis plasma, 15 μM arm, 340 nm, ~3 J/cm^2): 3.6 µM
Pre-UV S-59 ([1]; S. epidermidis plasma, 15 μM arm, 365 nm arm): 14.8 µM
Post-UV S-59 ([1]; S. epidermidis plasma, 15 μM arm, 365 nm, ~3 J/cm^2): 7.8 µM
Pre-UV S-59 ([1]; S. epidermidis plasma, 15 μM arm, 385 nm arm): 15.0 µM
Post-UV S-59 ([1]; S. epidermidis plasma, 15 μM arm, 385 nm, ~3 J/cm^2): 15.1 µM
residual amotosalen ([1]; amotosalen+325 nm and amotosalen+340 nm illumination): less than 5 μM
